{"source": "patent US20220031625A1", "about": "“OPHTHALMIC COMPOSITIONS FOR DELIVERING MEIBUM-LIKE MATERIALS” (Altaire Pharmaceuticals, Inc., priority 2020, published 2022)", "tested_on": "normal human keratinocytes/stratified squamous epithelium (EPIOCULAR model)", "test": "Ocular irritation test - MTT assay on EPIOCULAR model", "assay_type": "cell-based", "experimental": "Another Ocular Irritation Study was done by exposing a microemulsion containing polyoxyl 35 castor oil in accordance with an embodiment of the present disclosure onto normal human keratinocytes/stratified squamous epithelium which is similar to that found in the cornea epithelium of the human eye (EPIOCULAR model), and then checking tissue viability with MTT assay for cytoxicity after incubation in comparison with a water control (Cyprotex). The study design and results are summarized below in Table 7."}
{"compound": "COC(C)=O", "note": "[Methyl Acetate]", "values": [{"measurement": "Irritation Response (Irritant if ≤60%)", "setting": "EPIOCULAR model", "value": "Positive"}, {"measurement": "Mean Tissue Viability", "setting": "in comparison with a water control", "value": 31.1, "unit": "%"}]}
